Data published in patent US20240051985A1, “METTL3 MODULATORS” (ACCENT THERAPEUTICS, INC., priority 2020, published 2024).

Experiments:
METTL3/METTL14 = METTL3/METTL14 (Homo sapiens, UniProt Q86U44); test: METTL3-14 standard enzyme assay (3H-SAM flashplate); conditions: Table 4; METTL3 biochemical assay
Summary of the method: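 METTL3/METTL14 (2.5 nM) preincubated 5 min, then reacted with 3′-biotinylated RNA UCUGGACUAAA (100 nM) and 3H-SAM (100 nM) for 30 min at ambient temperature in 20 mM HEPES pH 7.5, 50 mM KCl, 250 μM MgCl2, 1 mM DTT. Quenched with 15 μM cold SAM; product captured on streptavidin flashplates, scintillation counted.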

FLT3-ITD = biological target: T1, FLT3-ITD (Homo sapiens, UniProt P36888); test: FLT3-ITD LanthaScreen assay; assay type: biochemical; conditions: Table 4
T1 sequence (P36888 1-993): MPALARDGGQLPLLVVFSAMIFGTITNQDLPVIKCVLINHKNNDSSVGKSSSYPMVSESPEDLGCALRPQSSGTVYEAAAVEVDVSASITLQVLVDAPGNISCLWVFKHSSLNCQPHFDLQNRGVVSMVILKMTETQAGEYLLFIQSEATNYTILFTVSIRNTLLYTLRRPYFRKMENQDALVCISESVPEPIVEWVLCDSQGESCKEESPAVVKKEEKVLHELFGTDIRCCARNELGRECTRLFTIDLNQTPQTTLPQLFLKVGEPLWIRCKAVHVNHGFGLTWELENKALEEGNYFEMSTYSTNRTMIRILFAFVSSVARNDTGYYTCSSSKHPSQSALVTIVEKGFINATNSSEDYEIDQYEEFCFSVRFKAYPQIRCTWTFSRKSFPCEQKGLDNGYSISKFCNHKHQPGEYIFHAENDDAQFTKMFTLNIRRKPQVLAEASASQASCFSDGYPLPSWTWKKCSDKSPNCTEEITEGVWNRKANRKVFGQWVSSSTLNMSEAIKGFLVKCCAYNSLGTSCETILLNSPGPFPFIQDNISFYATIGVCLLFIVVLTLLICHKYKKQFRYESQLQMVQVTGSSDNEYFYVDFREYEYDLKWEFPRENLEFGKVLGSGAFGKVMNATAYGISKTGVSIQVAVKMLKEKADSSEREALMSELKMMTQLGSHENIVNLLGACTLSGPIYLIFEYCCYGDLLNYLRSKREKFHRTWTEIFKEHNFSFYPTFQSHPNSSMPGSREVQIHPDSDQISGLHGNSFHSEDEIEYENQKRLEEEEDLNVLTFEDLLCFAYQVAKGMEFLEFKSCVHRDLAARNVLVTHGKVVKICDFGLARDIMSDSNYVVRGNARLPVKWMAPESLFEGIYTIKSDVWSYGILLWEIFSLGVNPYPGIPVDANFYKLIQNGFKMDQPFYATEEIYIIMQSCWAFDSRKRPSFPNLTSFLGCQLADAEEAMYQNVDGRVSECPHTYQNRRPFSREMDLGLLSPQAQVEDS
Protocol: (§1) FLT3/FLT3-ITD LanthaScreen Assays
(§2) Assays were performed in a 10 μl-volume in 384-well polypropylene microplates (Perkin Elmer Proxiplate, cat. No. 6059480) at ambient temperature. Optimized 1× assay buffer was 50 mM Hepes pH 7.5, 2 mM DTT, 0.01% Tween, 0.01% BSA, 10 mM MgCl2. For compound screening FLT3 (final concentration, f.c.=[…]) or FLT3-ITD (f.c.=[…]) was added using a Multidrop Combi (ThermoFisher Scientific, Waltham, MA) and preincubated for 10 min. Reactions were started by adding fluorescein-poly GT (f.c.=200 nM) and ATP (f.c.=57 μM) substrates. Reactions proceeded for 40 minutes. The reactions were stopped with a detection mixture of EDTA (f.c.=20 mM) and terbium-conjugated anti-phoso tyrosine antibody pY20 (f.c.=2 nM). The plates were sealed and read on an Envision (PerkinElmer, Waltham, MA) using 340 nm excitation and emission reads at 495 and 520 nM.

FLT3 = biological target: T2, FLT3 (Homo sapiens, UniProt P36888); test: FLT3 LanthaScreen assay; assay type: biochemical; conditions: Table 4
T2 sequence (P36888 27-993): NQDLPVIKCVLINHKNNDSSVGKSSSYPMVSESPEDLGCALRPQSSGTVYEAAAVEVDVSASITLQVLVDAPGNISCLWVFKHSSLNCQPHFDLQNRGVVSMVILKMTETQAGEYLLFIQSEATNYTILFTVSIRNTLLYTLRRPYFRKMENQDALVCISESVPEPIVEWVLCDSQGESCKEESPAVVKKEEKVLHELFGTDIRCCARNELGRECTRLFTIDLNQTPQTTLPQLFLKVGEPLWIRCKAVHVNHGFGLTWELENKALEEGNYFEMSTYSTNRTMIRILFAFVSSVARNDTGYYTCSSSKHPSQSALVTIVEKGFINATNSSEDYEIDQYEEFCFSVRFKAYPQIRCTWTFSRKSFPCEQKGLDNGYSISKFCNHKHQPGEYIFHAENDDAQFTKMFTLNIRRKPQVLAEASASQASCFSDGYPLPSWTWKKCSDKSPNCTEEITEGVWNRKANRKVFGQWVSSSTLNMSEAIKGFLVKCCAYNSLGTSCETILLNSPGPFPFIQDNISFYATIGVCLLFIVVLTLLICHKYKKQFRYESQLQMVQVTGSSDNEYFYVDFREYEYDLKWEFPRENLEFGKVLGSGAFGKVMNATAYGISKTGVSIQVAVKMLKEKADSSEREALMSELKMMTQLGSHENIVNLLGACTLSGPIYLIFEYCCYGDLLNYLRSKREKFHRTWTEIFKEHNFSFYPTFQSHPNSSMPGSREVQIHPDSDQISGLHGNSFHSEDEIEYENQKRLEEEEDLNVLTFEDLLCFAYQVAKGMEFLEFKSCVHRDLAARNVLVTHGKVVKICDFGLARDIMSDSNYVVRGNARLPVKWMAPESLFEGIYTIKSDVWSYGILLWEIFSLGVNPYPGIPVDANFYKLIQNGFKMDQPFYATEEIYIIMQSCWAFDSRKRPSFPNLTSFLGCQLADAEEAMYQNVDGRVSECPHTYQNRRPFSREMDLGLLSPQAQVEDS
Protocol: as §1, §2

PRMT5-MEP50 = PRMT5-MEP50 (Homo sapiens, UniProt O14744); test: PRMT5 assay (3H-SAM flashplate); conditions: Table 4; PRMT5 biochemical assay
Summary of the method: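 PRMT5-MEP50 at 2.5 nM, preincubated 5 min with compound in 20 mM Tris-HCl pH 8.0, 1 mM DTT, 0.01% Tween at ambient temperature. Biotinylated acetylated histone H4 peptide (100 nM) and 3H-SAM (250 nM) react 60 min, quenched with 15 μM cold SAM; methylation captured on streptavidin flashplates and scintillation-counted.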

Sequence of METTL3/METTL14 (Q86U44 whole entry, species assumed): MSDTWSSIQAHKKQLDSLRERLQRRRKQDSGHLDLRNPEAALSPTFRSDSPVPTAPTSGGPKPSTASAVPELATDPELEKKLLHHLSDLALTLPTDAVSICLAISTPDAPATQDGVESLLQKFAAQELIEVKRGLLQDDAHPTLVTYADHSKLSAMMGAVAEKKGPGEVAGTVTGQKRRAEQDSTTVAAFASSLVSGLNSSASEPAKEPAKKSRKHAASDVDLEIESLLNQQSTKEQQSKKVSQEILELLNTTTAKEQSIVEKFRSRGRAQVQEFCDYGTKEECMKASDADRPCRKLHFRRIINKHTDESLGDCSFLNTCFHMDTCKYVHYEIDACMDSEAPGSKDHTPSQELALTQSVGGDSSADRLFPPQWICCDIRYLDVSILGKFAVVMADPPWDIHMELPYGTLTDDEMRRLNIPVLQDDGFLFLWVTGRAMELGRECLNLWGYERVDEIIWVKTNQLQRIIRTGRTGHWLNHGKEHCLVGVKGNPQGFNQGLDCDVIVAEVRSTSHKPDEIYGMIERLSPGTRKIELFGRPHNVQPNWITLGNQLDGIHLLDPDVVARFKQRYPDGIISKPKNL
Sequence of METTL3/METTL14 (Q9HCE5 whole entry partner, species assumed): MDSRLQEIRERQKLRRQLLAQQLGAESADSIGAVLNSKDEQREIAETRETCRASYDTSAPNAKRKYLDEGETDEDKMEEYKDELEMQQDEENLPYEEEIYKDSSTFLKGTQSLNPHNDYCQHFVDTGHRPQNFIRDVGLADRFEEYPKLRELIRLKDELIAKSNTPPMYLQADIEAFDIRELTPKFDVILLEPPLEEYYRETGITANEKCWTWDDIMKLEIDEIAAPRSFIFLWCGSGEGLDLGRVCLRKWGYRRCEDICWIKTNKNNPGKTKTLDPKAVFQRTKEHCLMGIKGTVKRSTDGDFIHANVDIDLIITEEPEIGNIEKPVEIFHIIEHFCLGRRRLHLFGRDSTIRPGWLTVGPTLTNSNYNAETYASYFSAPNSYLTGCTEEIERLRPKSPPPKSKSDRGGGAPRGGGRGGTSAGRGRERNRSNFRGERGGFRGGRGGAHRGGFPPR
Sequence of PRMT5-MEP50 (O14744 whole entry): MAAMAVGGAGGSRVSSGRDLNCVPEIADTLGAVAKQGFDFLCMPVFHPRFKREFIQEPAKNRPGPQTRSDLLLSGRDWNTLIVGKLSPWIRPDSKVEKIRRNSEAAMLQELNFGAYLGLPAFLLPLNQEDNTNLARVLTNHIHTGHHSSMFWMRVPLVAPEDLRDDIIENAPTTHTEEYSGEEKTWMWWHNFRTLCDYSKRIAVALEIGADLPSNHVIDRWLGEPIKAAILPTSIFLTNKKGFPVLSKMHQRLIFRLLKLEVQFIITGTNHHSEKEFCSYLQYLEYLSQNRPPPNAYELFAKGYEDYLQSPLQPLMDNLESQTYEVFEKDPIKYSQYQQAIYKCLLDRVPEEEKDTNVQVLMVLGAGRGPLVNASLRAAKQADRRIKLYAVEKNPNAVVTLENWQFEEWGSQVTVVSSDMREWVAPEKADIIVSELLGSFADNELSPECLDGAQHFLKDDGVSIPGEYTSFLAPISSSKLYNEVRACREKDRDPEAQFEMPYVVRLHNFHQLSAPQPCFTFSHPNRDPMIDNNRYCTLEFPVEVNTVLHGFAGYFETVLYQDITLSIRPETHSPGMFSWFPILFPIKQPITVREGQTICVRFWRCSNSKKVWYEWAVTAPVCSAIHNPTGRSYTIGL
Sequence of PRMT5-MEP50 (Q9BQA1 whole entry partner): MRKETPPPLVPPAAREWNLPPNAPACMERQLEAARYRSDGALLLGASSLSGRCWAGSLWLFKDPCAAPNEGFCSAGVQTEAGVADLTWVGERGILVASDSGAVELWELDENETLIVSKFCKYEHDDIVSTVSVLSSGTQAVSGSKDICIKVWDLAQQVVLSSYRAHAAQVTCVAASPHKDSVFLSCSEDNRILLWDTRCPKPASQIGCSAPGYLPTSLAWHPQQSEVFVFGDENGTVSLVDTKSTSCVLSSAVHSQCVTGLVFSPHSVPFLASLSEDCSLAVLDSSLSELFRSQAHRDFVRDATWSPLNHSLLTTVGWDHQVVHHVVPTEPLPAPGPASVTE

IC50 (METTL3/METTL14) [nM]	IC50 (FLT3-ITD) [nM]	IC50 (FLT3) [nM]	IC50 (PRMT5-MEP50) [nM]	SMILES
≥ 1000	≥ 1000	≥ 1000	10 to 100	CN1CCC[C@@H](NC(=O)[C@H]2O[C@@H](n3cc(-c4ccn(C)n4)c4c(N)ncnc43)[C@H](O)[C@@H]2O)C1 [Compound I-46, (2S,3S,4R,5R)-5-[4-amino-5-(1-methyl-1H-pyrazol-3-yl)-7H-pyrrolo[2,3-d]pyrimidin-7-yl]-3,4-dihydroxy-N-[(3R)-1-methylpiperidin-3-yl]oxolane-2-carboxamide]
100 to 1000	≥ 1000	≥ 1000	100 to 1000	COCCn1ccc(-c2cn([C@@H]3O[C@H](C(=O)NC4CCN(C)CC4)[C@@H](O)[C@H]3O)c3ncnc(N)c23)n1 [Compound I-57, (2S,3S,4R,5R)-5-(4-amino-5-(1-(2-methoxyethyl)-1H-pyrazol-3-yl)-7H-pyrrolo[2,3-d]pyrimidin-7-yl)-3,4-dihydroxy-N-(1-methylpiperidin-4-yl)tetrahydrofuran-2-carboxamide]
100 to 1000	≥ 1000	≥ 1000	10 to 100	CN1CCC(N(CCC#N)C(=O)[C@H]2O[C@@H](n3cc(-c4ccn(C)n4)c4c(N)ncnc43)[C@H](O)[C@@H]2O)CC1 [Compound I-144]
100 to 1000	≥ 1000	≥ 1000	< 10	CN1CCC(N(CCCO)C(=O)[C@H]2O[C@@H](n3cc(-c4ccn(C)n4)c4c(N)ncnc43)[C@H](O)[C@@H]2O)CC1 [Compound I-145]
10 to 100	≥ 1000	≥ 1000	10 to 100	CN1CCC(N(CCCN)C(=O)[C@H]2O[C@@H](n3cc(-c4ccn(C)n4)c4c(N)ncnc43)[C@H](O)[C@@H]2O)CC1 [Compound I-146]
≥ 1000	≥ 1000	≥ 1000	< 10	CC(O)CN(C(=O)[C@H]1O[C@@H](n2cc(-c3ccn(C)n3)c3c(N)ncnc32)[C@H](O)[C@@H]1O)C1CCN(C)CC1 (some centres unmarked) [Compound I-147]
≥ 1000	≥ 1000	≥ 1000	10 to 100	CC(O)CCN(C(=O)[C@H]1O[C@@H](n2cc(-c3ccn(C)n3)c3c(N)ncnc32)[C@H](O)[C@@H]1O)C1CCN(C)CC1 (some centres unmarked) [Compound I-148]
10 to 100	≥ 1000	≥ 1000	< 10	CN1CCC(N(C(=O)[C@H]2O[C@@H](n3cc(-c4ccn(C)n4)c4c(N)ncnc43)[C@H](O)[C@@H]2O)C2CC2)CC1 [Compound I-149]

The next lines start with the compound.

SMILES	IC50 (METTL3/METTL14) [nM]	IC50 (FLT3-ITD) [nM]	IC50 (FLT3) [nM]	IC50 (PRMT5-MEP50) [nM]
CN1CCC(NC(=O)[C@H]2C[C@@H](n3cc(-c4ccn(C)n4)c4c(N)ncnc43)[C@H](O)[C@@H]2O)CC1 [Compound I-44, (1S,2R,3S,4R)-4-[4-amino-5-(1-methyl-1H-pyrazol-3-yl)-7H-pyrrolo[2,3-d]pyrimidin-7-yl]-2,3-dihydroxy-N-(1-methylpiperidin-4-yl)cyclopentane-1-carboxamide]	100 to 1000	≥ 1000	≥ 1000	10 to 100
Cn1ccc(-c2cn([C@@H]3O[C@H](C(=O)NC[C@H]4CC[C@@H](O)CC4)[C@@H](O)[C@H]3O)c3ncnc(N)c23)n1 [Compound I-45, (2S,3S,4R,5R)-5-[4-amino-5-(1-methyl-1H-pyrazol-3-yl)-7H-pyrrolo[2,3-d]pyrimidin-7-yl]-3,4-dihydroxy-N-{[(1s,4s)-4-hydroxycyclohexyl]methyl}oxolane-2-carboxamide]	≥ 1000	≥ 1000	≥ 1000	≥ 1000
CN1CCC(NC(=O)[C@H]2O[C@@H](n3cc(C4CCCO4)c4c(N)ncnc43)[C@H](O)[C@@H]2O)CC1 (stereo partly drawn) [Compound I-53, (2S,3S,4R,5R)-5-[4-amino-5-(oxolan-2-yl)-7H-pyrrolo[2,3-d]pyrimidin-7-yl]-3,4-dihydroxy-N-(1-methylpiperidin-4-yl)oxolane-2-carboxamide]	100 to 1000	≥ 1000	≥ 1000	100 to 1000
Cn1ccc(-c2cn([C@@H]3O[C@H](C(N)=O)[C@@H](O)[C@H]3O)c3ncnc(N)c23)n1 [Compound I-54]	≥ 1000	≥ 1000	≥ 1000	100 to 1000
CN1CCC(NC(=O)[C@H]2O[C@@H](n3cc(C4CCCC4)c4c(N)ncnc43)[C@H](O)[C@@H]2O)CC1 [Compound I-56, (2S,3S,4R,5R)-5-(4-amino-5-cyclopentyl-7H-pyrrolo[2,3-d]pyrimidin-7-yl)-3,4-dihydroxy-N-(1-methylpiperidin-4-yl)tetrahydrofuran-2-carboxamide]	100 to 1000	≥ 1000	≥ 1000	100 to 1000
CNc1ccc2ccc(NC(=O)[C@H]3O[C@@H](n4cc(-c5ccn(C)n5)c5c(N)ncnc54)[C@@H](F)[C@@H]3O)cc2n1 [Compound I-61]	< 10	100 to 1000	100 to 1000	10 to 100
CNc1ccc2ccc(NC(=O)[C@H]3O[C@@H](n4ccc5c(N)ncnc54)[C@@H](F)[C@@H]3O)cc2n1 [Compound I-62]	100 to 1000	≥ 1000	≥ 1000	< 10
CNC(=O)Nc1cc(NC(=O)[C@H]2O[C@@H](n3cc(-c4ccn(C)n4)c4c(N)ncnc43)[C@H](O)[C@@H]2O)ccn1 [Compound I-143]	100 to 1000	≥ 1000	≥ 1000	10 to 100
Cn1ccc(-c2cn([C@@H]3O[C@H](C(=O)N4CCC[C@@H](NS(C)(=O)=O)C4)[C@@H](O)[C@H]3O)c3ncnc(N)c23)n1 [Compound I-151]	≥ 1000	≥ 1000	≥ 1000	≥ 1000
